According to a melting point compilation (Tetko et al.; mined from patent text by program, amines drawn as free bases though some values may be those of a salt):

melting point | SMILES
138 to 139 °C | CN(C)CC1CCc2cc(NC(=O)c3ccc(-c4ccc(CO)cc4)cc3)ccc2C1 (stereo not given)
120 °C | COC(=O)C1=C(C)NC(C)=C(C)C1c1ccccc1 (stereo not given)
160 to 162 °C | Cc1nc(-c2ccccc2)nc(NCC(=O)N(C)c2ccccc2)c1Br
190 to 191 °C | COc1ccc(OCC(N)=O)c([N+](=O)[O-])c1
169 to 171 °C | CCC(=O)Nc1ccc(OCc2nc(Cl)ccc2Cl)cc1
79 to 81 °C | CCSC1=NCC(=O)N1c1ccccc1
267 to 290 °C | CC(=O)OCC(=O)Nc1cc(-c2ccncc2)c[nH]c1=O
210 °C | CCCCCc1ccc(-c2nc(C)c(C(C)=NNC(=N)N)s2)cc1
33 to 40 °C | CC(=O)Oc1cccc(Br)c1
144 °C | COC(=O)c1ccc(OCCCC#N)c(Cl)c1
136 to 140 °C | COc1cccc(OC)c1C(=O)Nc1ccc(OCCN2CCCC2)cc1
153 to 156 °C | Cc1cnc(C2=NC(C)(C(C)C)C(=O)N2)c(C(=O)C(=O)N(C)c2ccccc2)c1 (stereo not given)
103 °C | COC(=O)c1ccc(OC(=O)c2ccccc2)cc1O
110 to 112 °C | COC(=O)c1cccc(-c2cc(CCN3CCCC3=O)c3cc(OC)ccc3c2)c1
93 to 96 °C | COc1cc(OC)nc(Oc2cc([N+](=O)[O-])ccc2C(=O)O)n1
192 to 195 °C | CCOc1cc2ncc(C#N)c(Nc3cccc(F)c3)c2cc1OCC
130 to 132 °C | CCCCCCCCC1C=CC(Oc2ccc(C(=O)O)o2)=C2N=C3CCCCC3=C21 (stereo not given)
175 to 177 °C | COc1cc(C)nc(NC(=O)NS(=O)(=O)c2cccc3c2NC(C)C3)n1 (stereo not given)
177 to 178 °C | CCOC(=O)c1c(CN(CC)CC)nc2sc3c(c2c1-c1ccc(Cl)cc1)CCN(C(=O)c1ccccc1)C3
197 to 198 °C | COc1cc(-n2c(C)c(CC(=O)O)c3cc(C)ccc32)nc(OC)n1
140 to 141 °C | CC=Cc1c(NC(=O)C(F)(F)F)ccc2c(=O)cc(C(=O)OCC)oc12

melting point | SMILES
122 to 123 °C | COC(=O)NC=Cc1ccc(OCC(O)CNC(C)CC#N)cc1 (stereo not given)
94 to 95 °C | COc1ccc(C(=O)c2ccccc2[N+](=O)[O-])cn1
142 to 143 °C | COCCCc1cc(N(C)Cc2sc(-c3ccc(C(F)(F)F)cc3)nc2C)ccc1OCC(=O)O
101 to 102 °C | CC(=O)NCc1ccc2c(Cl)cn(C3CCN(CCc4ccc(F)cc4)CC3)c2c1
147 to 150 °C | CCCc1c(OCCCCCCc2cccc(O)c2O)ccc(C(=O)O)c1O
94 to 95 °C | CCOC(=O)c1cn(Cc2ccccc2)nc1NC(=O)NC1CCCCC1
226 to 228 °C | Cc1c2c(nn1CCO)c(N)nc1ccccc12
75 to 77 °C | COC(=O)CCSCC(=O)c1cc2c(cc1Cl)NC(=O)C2
174 to 175 °C | O=C(O)CCc1ccc(OCCCc2cc(-c3ccc(C(F)(F)F)cc3)no2)cc1
74 °C | COC(COc1ccc2oc(C(=O)O)c(C)c2c1)OC
141 to 142 °C | COc1ccc(C2OC(=O)c3cc(OC)c(OC)c(OC)c32)cc1OC (stereo not given)
56 to 58 °C | CCCCCCCCCCCCCCOc1ccc(C(=O)OC)o1
305 to 307 °C | CCCn1c(=O)c2c(NC)n[nH]c2n(Cc2ccc(Cl)cc2)c1=O
80 to 81 °C | CCc1ccc(C(=O)C=CN(C)C)cc1
162 to 163 °C | CCOC(=O)c1c(COC(C)=O)cccc1S(=O)(=O)NC(=O)Nc1nc(OC)cc(OC)n1
86 to 88 °C | COCOc1ccc(/C=C/C(=O)/C=C/c2ccc(OCOC)c(OCOC)c2)cc1OCOC
185 to 187 °C | Cc1ncc(CSC(=O)c2cccc(C(=O)SCc3cnc(C)c(O)c3CO)c2)c(CO)c1O
55 to 56 °C | CCCNC(=O)c1cccnc1Oc1cccnc1
174 to 177 °C | CCCN(CCC)CCc1ccc(OC)c(C(=O)O)c1OC
127 to 128 °C | COc1cccc([C@H]2O[C@H](CC(=O)N[C@H](C)C(=O)OC(C)(C)C)C(=O)N(CC(C)(C)C)c3ccc(Cl)cc32)c1OC
170 to 171 °C | COc1cc2c(cc1OC)CCCCC(C(=O)N1CCN(C(=O)c3cc(OC)c(OC)c(OC)c3)CC1)=C2

Continued, compound first:

SMILES | melting point
Cn1nc(C#N)c(Nc2ccc(Br)cc2[N+](=O)[O-])n1 | 162 to 164 °C
N#Cc1c(Cl)csc1NC=O | 241 °C
O=c1[nH]c2ccccc2c(O)c1-c1csc(-c2ccncc2)n1 | > 250 °C
CC(=O)C1(C)COC(C)(C)OC1 | 48 to 50 °C
C[C@H](NC(=O)Cc1cc(F)cc(F)c1)C(=O)N[C@@H]1C(=O)Nc2ccccc2S[C@@H]1c1cc(Br)cs1 | 145 to 155 °C
CC(C)c1ccc(Oc2ccc(CCNc3ncnc4nccnc34)cc2)cc1 | 105 to 106 °C
O=Cc1cc([N+](=O)[O-])ccc1Sc1ccccc1 | 96 to 100 °C
COC(=O)c1nn(-c2ccc(Cl)cc2Cl)c(-c2ccc(Cl)cc2)c1C | 133 °C
CCC1=Cc2cc3c(cc2C(c2ccc(N)cc2)=NN1C(C)=O)OCO3 | 136 to 138 °C
COC(=O)c1sc2c(c1N)-c1ccccc1CN2c1ccccc1 | 136 to 142 °C
Cn1c([N+](=O)[O-])cnc1-c1nc(Cl)c2ccccc2n1 | 178 to 181 °C
N=C(N)c1cccc(Cn2ccc3ncn(Cc4ccc5ccc(C(=N)N)cc5c4)c3c2=O)c1 | > 300 °C
O=c1[nH]c2cc(Br)c3c(c2[nH]c1=O)CN(CCCc1ccccc1)CC3 | 288 to 293 °C
COc1c(F)c(Oc2cc(C(F)(F)F)nn2C)nc(Oc2cc(C(F)(F)F)nn2C)c1F | 83 °C
COc1cc2cc(C(=O)N3CC(COS(C)(=O)=O)c4c3cc([N+](=O)[O-])c3ccccc43)[nH]c2c(OC)c1OC (stereo not given) | 214 °C
Nc1ccc([N+](=O)[O-])cc1CO | 141 to 142 °C
O=C1CCN2C(=O)c3cccc(NC(=O)Nc4cc(O)c5ccccc5n4)c3C2C1 (stereo not given) | > 260 °C
OC(c1cncs1)(c1cncs1)C(F)(F)F | 109 to 110 °C
O=S(=O)(N[C@H]1CC[C@H](CCN2CCN(c3nccc4c3OCC4)CC2)CC1)c1ccccc1 | 122 °C
O=c1ccn(-c2cccc(C(F)(F)F)c2)nc1-c1c(F)cnn1-c1ccccc1 | 156 to 158 °C

SMILES | melting point
CC=C1CCC2C3CCC4CC(O)CCC4(C)C3C(N(C)C)CC12C (stereo not given) | 59 to 61 °C
CC(O)(c1ccsc1)c1nccs1 (stereo not given) | 120 to 122 °C
CCSc1ccc(-c2cncnc2)c2c1C(=O)CC(C)C2 (stereo not given) | 168 to 171 °C
Cc1nn(-c2cc(O)c(Cl)cc2F)c(C)c1[N+](=O)[O-] | 157 to 158 °C
CC(C)n1nc(-c2cc(C#N)cnc2-c2ccccc2)ccc1=O | 133 to 135 °C
C=Cc1ncn(-c2c(Cl)cc(C(F)(F)F)cc2Cl)n1 | 97 to 99 °C
O=c1[nH]c2ncc(-c3cnc4[nH]cnc4c3)nc2n1CC1CCOCC1 | 367 to 370 °C
CCS(=O)(=O)c1ccc(I)cc1 | 78 to 79 °C
CCOS(=O)(=O)c1ccc(-c2ccc(CCl)cc2)cc1 | 112 to 116 °C
Cc1ccc(NC(=O)C(CC2CCCC2)c2ccc(S(C)(=O)=O)cc2)nc1 (stereo not given) | 82 to 85 °C
Nc1c(S(=O)(=O)c2ccc(O)cc2)c2nccnc2n2ccnc12 | > 300 °C
O=C1N(Cc2ccccn2)c2cccc(-c3ccoc3)c2C12COc1cc3c(cc12)CCO3 (stereo not given) | 195 to 197 °C
O=C1c2ccccc2C(=O)N1C1CN(C(c2ccccc2)c2ccccc2)C1 | 118 to 120 °C
O=[N+]([O-])c1ccc(CN2CCC(O)CC2)cc1 | 114 to 115 °C
CC(=O)NC[C@H]1CN(c2ccc(N3CC(=O)C3)c(F)c2)C(=O)O1 | 192 to 193 °C
CN1CCN(S(=O)(=O)c2cccc(NC(=O)c3cnn4c(C(F)F)cc(-c5ccc(Cl)cc5)nc34)c2)CC1 | 147 °C
O=C(c1cccnc1)c1ccc2c(c1)CN1C=CNC1=N2 | 275 °C
CNC(=NC#N)NCc1cccnc1 | 183 to 184 °C
COc1ccc2c(c1)CCC1C2CCC2(C)C(NCCCCCCNc3ccc([N+](=O)[O-])cc3[N+](=O)[O-])CCC12 (stereo not given) | 90 to 92 °C
CNc1nc2ccc(C3=NNC(=O)NC3C)cc2s1 (stereo not given) | 290 to 295 °C

SMILES | melting point
CSc1ccc2c(c1)N(CCCN1CCC(C(O)F)CC1c1ccccc1)c1ccccc1S2 (stereo not given) | 60 °C
CN1CCN(NC(=O)Nc2cccc3c2C(=O)c2c-3n[nH]c2-c2ccc(N(C)C)cc2)CC1 | > 300 °C
O=C(CCCl)c1cc2[nH]c(=O)[nH]c2cc1Cl | 201 to 204 °C
CC(C)Cc1ccccc1Sc1c(O)cc(-c2ccccc2)oc1=O | 195 °C
Cc1ccc(Cl)c2sc(N)nc12 | 206 °C
O=[N+]([O-])c1c(-c2ccccc2)nn(CCCn2nc(-c3ccccc3)c([N+](=O)[O-])c2NCc2ccccc2)c1NCc1ccccc1 | 142 to 144 °C
CC(CC1=C(O)C(=O)c2ccccc2C1=O)C(F)(F)F (stereo not given) | 168 °C
O=C(CCCCCC1(C(=O)O)CCCC1)CCCCCC1(C(=O)O)CCCC1 | 78 to 85 °C
Cc1ncncc1C(=O)Nc1cnc(-n2nc(C(F)(F)F)cc2C2CC2)nc1 | 201 to 203 °C
COc1ccc(N2CCN(c3cc4c(cc3-c3ccc(C)cc3)OC(C)(C)C4)CC2)cc1 | 187 to 190 °C
CC(=O)Nc1nc(/C=C/C(=O)N2CCN(C(=O)c3cc(C(F)(F)F)cc(C(F)(F)F)c3)[C@H](Cc3c[nH]c4ccccc34)C2)cs1 | 167 to 172 °C
O=[N+]([O-])C=Cc1ccc(O)c(Br)c1 | 132 to 134 °C
O=C(Nc1cccc(F)c1F)c1ccc(-n2nc(C(F)(F)F)cc2C2CC2)nc1 | 155 to 160 °C
CCCCCCCCCCCCCCCCCCOC(=O)N(C)CC(O)C(O)C(O)C(O)CO (stereo not given) | 85 °C
S=C1CN=C(c2ccccn2)c2cc(I)ccc2N1 | 242 °C
CC(=O)N1CCCC(=O)c2ccc(Cl)cc2CCC1=O | 154 to 156 °C
Cc1c(C)c2c(c(C)c1N)CC(C)(CN1CCN(C)CC1)O2 (stereo not given) | 76 to 77 °C
O=C(CC(NC(=O)c1ccccc1)c1ccccc1)Nc1n[nH]c(=S)s1 (stereo not given) | 266 to 267 °C
